Assay results reported in ChEMBL document CHEMBL1152016, “Synthesis and -lactamase inhibition of anacardic acids and their analogues” (Bioorg Med Chem Lett, 1994).
Converted amounts (≈) assume the structure as drawn.

Columns and labels:
[1] = target: T1, Beta-lactamase (Proteus mirabilis, UniProt P30897); test: Concentration required for its inhibitory activity against Proteus mirabilis C889 class A beta-lactamase; No inhibition
T1 sequence (P30897 whole entry): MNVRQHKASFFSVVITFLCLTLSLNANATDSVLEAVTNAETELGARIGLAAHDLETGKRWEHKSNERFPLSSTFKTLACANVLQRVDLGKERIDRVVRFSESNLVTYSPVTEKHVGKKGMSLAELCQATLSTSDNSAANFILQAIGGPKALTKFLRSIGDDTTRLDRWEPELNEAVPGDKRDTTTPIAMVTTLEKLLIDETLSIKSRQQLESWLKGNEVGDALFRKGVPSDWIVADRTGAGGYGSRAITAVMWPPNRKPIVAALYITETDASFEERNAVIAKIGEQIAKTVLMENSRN

[2] = target: Beta-lactamase (Enterobacter cloacae, UniProt P05364); test: Concentration required for its inhibitory activity against Enterobacter cloacae P99 class C beta-lactamase
[3] = target: T2, Beta-lactamase pse-1 (Escherichia coli, UniProt Q2V0Y6); test: Concentration required for its inhibitory activity against Escherichia coli K12(PSE4) class A beta-lactamase
T2 sequence (Q2V0Y6 whole entry): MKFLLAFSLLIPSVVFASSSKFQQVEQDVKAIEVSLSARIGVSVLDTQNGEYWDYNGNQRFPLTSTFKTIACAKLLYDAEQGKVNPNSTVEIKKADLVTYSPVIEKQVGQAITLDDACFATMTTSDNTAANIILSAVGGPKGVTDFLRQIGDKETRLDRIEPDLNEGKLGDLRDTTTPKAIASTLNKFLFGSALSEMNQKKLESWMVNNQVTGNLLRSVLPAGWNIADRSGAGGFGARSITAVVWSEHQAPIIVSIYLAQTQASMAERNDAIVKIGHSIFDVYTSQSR

[4] = target: Beta-lactamase TEM (Escherichia coli, UniProt P62593); test: Concentration required for its inhibitory activity against Escherichia coli JT4(TEM1) class A beta-lactamase
[5] = target: T3, Beta-lactamase (Staphylococcus aureus, UniProt P00807); test: Concentration required for its inhibitory activity against Staphylococcus aureus Russel class A beta-lactamase; No inhibition
[6] = target: Beta-lactamase (Pseudomonas aeruginosa (strain ATCC 15692 / PAO1 / 1C / PRS 101 / LMG12228), UniProt P24735); test: Concentration required for its inhibitory activity against Pseudomonas aeruginosa class C beta-lactamase
[7] = target: T4, Beta-lactamase OXA-1 (Escherichia coli, UniProt P13661); test: Concentration required for its inhibitory activity against Escherichia coli K12(OXA1) class D beta-lactamase
[8] = target: T1, Beta-lactamase; test: Concentration required for its inhibitory activity against Proteus mirabilis C889 class A beta-lactamase
[9] = target: T4, Beta-lactamase OXA-1; test: Concentration required for its inhibitory activity against Escherichia coli K12(OXA1) class D beta-lactamase; No inhibition
[10] = target: T3, Beta-lactamase; test: Concentration required for its inhibitory activity against Staphylococcus aureus Russel class A beta-lactamase

Chain of Beta-lactamase (Pseudomonas aeruginosa (strain ATCC 15692 / PAO1 / 1C / PRS 101 / LMG12228), UniProt P24735) (P24735 whole entry): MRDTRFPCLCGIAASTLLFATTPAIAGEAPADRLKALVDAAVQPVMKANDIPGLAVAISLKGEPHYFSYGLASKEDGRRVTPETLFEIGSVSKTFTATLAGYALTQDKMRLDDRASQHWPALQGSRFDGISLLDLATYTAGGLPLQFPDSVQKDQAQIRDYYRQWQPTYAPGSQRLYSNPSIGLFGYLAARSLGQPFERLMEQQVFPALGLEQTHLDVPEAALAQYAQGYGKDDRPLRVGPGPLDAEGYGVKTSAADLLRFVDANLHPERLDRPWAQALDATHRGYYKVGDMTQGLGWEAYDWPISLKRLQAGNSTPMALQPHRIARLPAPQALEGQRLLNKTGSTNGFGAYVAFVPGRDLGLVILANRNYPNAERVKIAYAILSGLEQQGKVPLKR
Chain of Beta-lactamase (Enterobacter cloacae, UniProt P05364) (P05364 whole entry): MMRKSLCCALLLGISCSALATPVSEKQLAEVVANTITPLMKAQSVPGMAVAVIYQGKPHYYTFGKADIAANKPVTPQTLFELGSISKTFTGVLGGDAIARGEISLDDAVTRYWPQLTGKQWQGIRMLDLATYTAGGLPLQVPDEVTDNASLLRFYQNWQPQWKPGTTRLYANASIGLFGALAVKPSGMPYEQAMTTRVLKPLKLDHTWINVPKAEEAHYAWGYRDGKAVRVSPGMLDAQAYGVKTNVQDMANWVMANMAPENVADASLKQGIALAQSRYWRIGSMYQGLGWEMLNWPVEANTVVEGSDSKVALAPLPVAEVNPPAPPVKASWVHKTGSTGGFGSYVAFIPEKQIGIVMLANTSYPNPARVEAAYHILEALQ
Chain of Beta-lactamase TEM (P62593 whole entry): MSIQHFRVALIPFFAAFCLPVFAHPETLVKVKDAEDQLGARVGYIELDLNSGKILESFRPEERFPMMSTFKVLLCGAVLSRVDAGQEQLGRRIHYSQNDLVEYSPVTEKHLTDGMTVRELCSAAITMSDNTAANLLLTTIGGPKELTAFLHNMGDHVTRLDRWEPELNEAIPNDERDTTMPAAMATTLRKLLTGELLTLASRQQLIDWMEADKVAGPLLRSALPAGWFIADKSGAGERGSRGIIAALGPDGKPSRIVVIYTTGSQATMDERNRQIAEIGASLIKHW
T4 sequence (P13661 whole entry): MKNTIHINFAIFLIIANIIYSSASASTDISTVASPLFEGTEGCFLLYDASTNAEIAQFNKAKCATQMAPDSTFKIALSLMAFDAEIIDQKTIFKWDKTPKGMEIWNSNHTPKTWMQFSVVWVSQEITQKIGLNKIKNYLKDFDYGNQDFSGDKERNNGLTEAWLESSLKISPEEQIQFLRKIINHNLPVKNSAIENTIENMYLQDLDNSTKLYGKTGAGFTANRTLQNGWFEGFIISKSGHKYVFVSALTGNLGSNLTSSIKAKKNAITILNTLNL

IC50 [9]	SMILES	IC50 [1]	IC50 [2]	IC50 [3]	IC50 [4]	IC50 [5]	IC50 [6]	IC50 [7]	IC50 [8]	IC50 [10]
–	CCCCCCCCCCCCCCCc1cccc(O)c1	Not Active	7.2 µg/mL (≈ 23.6 µM)	20 µg/mL (≈ 65.7 µM)	–	–	–	–	–	–
–	CCCCCCCCCCCCCCCc1cccc(OC)c1C(=O)O	–	2.5 µg/mL (≈ 6.9 µM)	0.6 µg/mL (≈ 1.65 µM)	0.8 µg/mL (≈ 2.21 µM)	Not Active	11 µg/mL (≈ 30.3 µM)	> 33 µg/mL	22 µg/mL (≈ 60.7 µM)	–
–	CCCCCCCCCCCCCCCCCc1cccc(O)c1C(=O)O	–	1 µg/mL (≈ 2.66 µM)	0.7 µg/mL (≈ 1.86 µM)	1.9 µg/mL (≈ 5.05 µM)	Not Active	9.1 µg/mL (≈ 24.2 µM)	29 µg/mL (≈ 77 µM)	8.3 µg/mL (≈ 22 µM)	–
–	CCC=CCC=CCC=CCCCCCCCc1cccc(O)c1C(=O)O	–	17 µg/mL (≈ 45.9 µM)	10 µg/mL (≈ 27 µM)	–	Not Active	–	–	–	–
–	CCCCCCCCCCc1ccccc1C(=O)O	–	–	–	18 µg/mL (≈ 68.6 µM)	Not Active	–	–	–	–
–	CCCCCCCCCCc1cccc(O)c1O	–	21 µg/mL (≈ 83.9 µM)	–	–	–	–	–	–	–
–	CC(C)CCCCCCCCCCCCCc1cccc(O)c1C(=O)O	–	9 µg/mL (≈ 24.8 µM)	–	9.7 µg/mL (≈ 26.8 µM)	Not Active	16 µg/mL (≈ 44.1 µM)	–	–	–
–	O=C(O)[C@H]1/C(=C/CO)O[C@@H]2CC(=O)N21 [CLAVULANIC ACID]	–	–	0.015 µg/mL (≈ 0.0753 µM)	–	–	–	–	–	–
–	CCCCCCCCCCCCCCCc1cccc(O)c1O	–	29 µg/mL (≈ 90.5 µM)	–	–	–	–	–	–	–
Not Active	CCCCCCCCc1cccc(O)c1C(=O)O	–	–	16 µg/mL (≈ 63.9 µM)	–	Not Active	–	–	3.9 µg/mL (≈ 15.6 µM)	–
–	CCCCCCCCCCc1cccc(O)c1C(=O)O	–	–	–	12 µg/mL (≈ 43.1 µM)	Not Active	–	–	–	–
–	CCCCCCCCCCc1cccc(O)c1	Not Active	4.5 µg/mL (≈ 19.2 µM)	4.1 µg/mL (≈ 17.5 µM)	1.9 µg/mL (≈ 8.11 µM)	–	–	–	–	Not Active
–	CCC(C)CCCCCCCCCCCCc1cccc(O)c1C(=O)O (stereo not given)	–	31 µg/mL (≈ 85.5 µM)	–	10 µg/mL (≈ 27.6 µM)	–	36 µg/mL (≈ 99.3 µM)	–	–	–
–	C=CC/C=C\C/C=C\CCCCCCCc1cccc(O)c1C(=O)O [ANACARDIC ACID]	–	1.4 µg/mL (≈ 4.09 µM)	1.1 µg/mL (≈ 3.21 µM)	0.8 µg/mL (≈ 2.34 µM)	Not Active	7.2 µg/mL (≈ 21 µM)	25 µg/mL (≈ 73 µM)	31 µg/mL (≈ 90.5 µM)	–
